Assay results reported in patent publication US20160378912A1, “STRUCTURE-BASED MODELING AND TARGET-SELECTIVITY PREDICTION” (EPIGENETX, LLC, priority 2013, published 2016).

How the values were obtained:
HDAC9 = HDAC9 (Homo sapiens, UniProt Q9UKV0); details: MTS inhibitors; cited from earlier work
HDAC isoforms = assay: HDAC inhibition profiled over several HDAC isoforms (experimental); type: biochemical, human
HDAC4 = HDAC4 (Homo sapiens, UniProt P56524); details: MTS inhibitors; cited from earlier work
HDAC7 = target: T1, HDAC7 (Homo sapiens, UniProt Q8WUI4); details: MTS inhibitors; cited from earlier work
T1 sequence (Q8WUI4 1-952): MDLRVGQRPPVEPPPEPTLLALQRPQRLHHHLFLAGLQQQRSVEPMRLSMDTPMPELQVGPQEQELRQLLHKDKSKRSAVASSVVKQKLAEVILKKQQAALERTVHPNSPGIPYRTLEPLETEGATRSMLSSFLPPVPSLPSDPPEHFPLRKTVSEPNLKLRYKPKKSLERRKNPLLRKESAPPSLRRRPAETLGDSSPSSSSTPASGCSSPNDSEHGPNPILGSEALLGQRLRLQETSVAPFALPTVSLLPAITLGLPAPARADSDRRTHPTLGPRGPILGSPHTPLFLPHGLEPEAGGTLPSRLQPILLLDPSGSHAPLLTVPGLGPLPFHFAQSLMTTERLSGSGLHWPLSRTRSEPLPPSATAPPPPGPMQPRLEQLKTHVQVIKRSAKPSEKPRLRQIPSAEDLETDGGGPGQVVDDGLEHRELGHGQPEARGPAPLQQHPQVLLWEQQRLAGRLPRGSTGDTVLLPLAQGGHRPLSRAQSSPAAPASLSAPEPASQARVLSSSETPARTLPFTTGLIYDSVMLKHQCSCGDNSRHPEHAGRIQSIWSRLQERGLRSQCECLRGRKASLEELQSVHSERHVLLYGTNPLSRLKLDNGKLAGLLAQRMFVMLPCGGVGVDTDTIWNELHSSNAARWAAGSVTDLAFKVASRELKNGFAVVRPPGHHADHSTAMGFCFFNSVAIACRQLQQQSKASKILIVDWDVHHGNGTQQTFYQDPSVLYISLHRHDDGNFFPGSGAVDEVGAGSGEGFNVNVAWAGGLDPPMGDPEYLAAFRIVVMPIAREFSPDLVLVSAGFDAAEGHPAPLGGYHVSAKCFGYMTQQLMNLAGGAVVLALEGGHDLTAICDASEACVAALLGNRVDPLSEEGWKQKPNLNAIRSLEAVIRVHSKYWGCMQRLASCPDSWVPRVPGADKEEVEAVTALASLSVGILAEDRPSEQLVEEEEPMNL

HDAC5 = HDAC5 (Homo sapiens, UniProt Q9UQL6); details: MTS inhibitors, HDAC5; cited from earlier work
HIV-RT K103N = HIV-RT K103N (Human immunodeficiency virus type 1 group M subtype B, UniProt P04585, K690N); details: Rotili et al. 2012; cited from earlier work
HIV-RT Y188L = HIV-RT Y188L (Human immunodeficiency virus type 1 group M subtype B, UniProt P04585, Y775L); details: Rotili et al. 2012; cited from earlier work
HIV-RT WT = HIV-RT WT (Human immunodeficiency virus type 1 group M subtype B, UniProt P04585); details: Rotili et al. 2012; cited from earlier work
HIV-RT V106A = HIV-RT V106A (Human immunodeficiency virus type 1 group M subtype B, UniProt P04585, V693A); details: Rotili et al. 2012; cited from earlier work
HIV-RT Y181I = HIV-RT Y181I (Human immunodeficiency virus type 1 group M subtype B, UniProt P04585, Y768I); details: Rotili et al. 2012; cited from earlier work
HIV-RT L100I = HIV-RT L100I (Human immunodeficiency virus type 1 group M subtype B, UniProt P04585, L687I); details: Rotili et al. 2012; cited from earlier work
HDLP = details: CTS; cited from earlier work

Chain of HDAC5 (Q9UQL6 whole entry): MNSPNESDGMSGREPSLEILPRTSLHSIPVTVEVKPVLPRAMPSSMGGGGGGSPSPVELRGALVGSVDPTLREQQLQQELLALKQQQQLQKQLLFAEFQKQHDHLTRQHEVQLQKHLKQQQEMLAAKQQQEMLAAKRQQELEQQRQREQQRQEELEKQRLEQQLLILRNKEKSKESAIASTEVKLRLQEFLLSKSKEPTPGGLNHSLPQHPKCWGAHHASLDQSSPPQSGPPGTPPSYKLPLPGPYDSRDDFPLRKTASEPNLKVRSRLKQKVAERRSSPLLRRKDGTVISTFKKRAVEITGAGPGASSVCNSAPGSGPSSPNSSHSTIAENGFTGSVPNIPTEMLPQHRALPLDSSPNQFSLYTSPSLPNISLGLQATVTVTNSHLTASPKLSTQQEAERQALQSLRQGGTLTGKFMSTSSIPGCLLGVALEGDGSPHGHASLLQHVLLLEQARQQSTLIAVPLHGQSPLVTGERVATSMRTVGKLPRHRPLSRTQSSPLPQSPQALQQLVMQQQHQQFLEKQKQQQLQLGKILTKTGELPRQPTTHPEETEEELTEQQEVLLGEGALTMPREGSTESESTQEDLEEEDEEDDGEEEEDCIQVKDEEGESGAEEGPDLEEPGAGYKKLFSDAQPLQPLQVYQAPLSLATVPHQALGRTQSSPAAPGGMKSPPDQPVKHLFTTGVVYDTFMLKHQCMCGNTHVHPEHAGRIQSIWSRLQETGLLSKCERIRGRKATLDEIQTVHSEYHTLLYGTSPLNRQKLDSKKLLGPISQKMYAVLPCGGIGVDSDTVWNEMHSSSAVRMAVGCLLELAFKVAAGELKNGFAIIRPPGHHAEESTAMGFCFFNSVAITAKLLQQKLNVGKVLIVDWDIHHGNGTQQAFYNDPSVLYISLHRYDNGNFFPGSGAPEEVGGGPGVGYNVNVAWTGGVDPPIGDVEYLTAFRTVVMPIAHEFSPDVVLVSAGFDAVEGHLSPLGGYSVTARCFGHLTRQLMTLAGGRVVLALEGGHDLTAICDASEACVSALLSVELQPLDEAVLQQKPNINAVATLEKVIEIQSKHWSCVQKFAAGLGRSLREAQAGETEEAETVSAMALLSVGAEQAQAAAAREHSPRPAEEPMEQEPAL
Chain of HDAC9 (Q9UKV0 whole entry, canonical isoform): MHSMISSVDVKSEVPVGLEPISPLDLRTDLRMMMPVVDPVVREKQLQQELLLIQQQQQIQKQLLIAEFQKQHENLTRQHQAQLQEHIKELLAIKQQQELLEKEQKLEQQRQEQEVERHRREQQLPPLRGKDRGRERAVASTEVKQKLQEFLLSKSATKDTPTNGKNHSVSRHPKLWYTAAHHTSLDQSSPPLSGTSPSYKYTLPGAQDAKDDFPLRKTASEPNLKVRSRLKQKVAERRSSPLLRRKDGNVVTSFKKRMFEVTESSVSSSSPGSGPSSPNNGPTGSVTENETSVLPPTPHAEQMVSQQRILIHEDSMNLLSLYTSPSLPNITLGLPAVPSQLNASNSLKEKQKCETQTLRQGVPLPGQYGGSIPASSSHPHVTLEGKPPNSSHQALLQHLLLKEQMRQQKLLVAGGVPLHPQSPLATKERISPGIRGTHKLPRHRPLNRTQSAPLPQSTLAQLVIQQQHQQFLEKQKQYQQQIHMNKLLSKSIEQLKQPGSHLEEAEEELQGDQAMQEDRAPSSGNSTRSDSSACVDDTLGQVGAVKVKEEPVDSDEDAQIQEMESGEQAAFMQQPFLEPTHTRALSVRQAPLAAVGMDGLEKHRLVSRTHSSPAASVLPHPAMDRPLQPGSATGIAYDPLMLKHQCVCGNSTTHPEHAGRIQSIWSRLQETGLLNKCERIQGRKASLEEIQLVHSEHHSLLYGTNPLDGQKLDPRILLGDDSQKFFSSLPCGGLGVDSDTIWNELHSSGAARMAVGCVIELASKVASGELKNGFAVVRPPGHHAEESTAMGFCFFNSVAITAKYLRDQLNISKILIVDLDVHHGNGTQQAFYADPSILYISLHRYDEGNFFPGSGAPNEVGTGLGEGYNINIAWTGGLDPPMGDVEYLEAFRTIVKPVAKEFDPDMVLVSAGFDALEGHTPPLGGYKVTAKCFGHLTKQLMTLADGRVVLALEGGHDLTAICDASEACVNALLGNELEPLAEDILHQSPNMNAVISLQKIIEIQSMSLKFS
Chain of HDAC4 (P56524 whole entry): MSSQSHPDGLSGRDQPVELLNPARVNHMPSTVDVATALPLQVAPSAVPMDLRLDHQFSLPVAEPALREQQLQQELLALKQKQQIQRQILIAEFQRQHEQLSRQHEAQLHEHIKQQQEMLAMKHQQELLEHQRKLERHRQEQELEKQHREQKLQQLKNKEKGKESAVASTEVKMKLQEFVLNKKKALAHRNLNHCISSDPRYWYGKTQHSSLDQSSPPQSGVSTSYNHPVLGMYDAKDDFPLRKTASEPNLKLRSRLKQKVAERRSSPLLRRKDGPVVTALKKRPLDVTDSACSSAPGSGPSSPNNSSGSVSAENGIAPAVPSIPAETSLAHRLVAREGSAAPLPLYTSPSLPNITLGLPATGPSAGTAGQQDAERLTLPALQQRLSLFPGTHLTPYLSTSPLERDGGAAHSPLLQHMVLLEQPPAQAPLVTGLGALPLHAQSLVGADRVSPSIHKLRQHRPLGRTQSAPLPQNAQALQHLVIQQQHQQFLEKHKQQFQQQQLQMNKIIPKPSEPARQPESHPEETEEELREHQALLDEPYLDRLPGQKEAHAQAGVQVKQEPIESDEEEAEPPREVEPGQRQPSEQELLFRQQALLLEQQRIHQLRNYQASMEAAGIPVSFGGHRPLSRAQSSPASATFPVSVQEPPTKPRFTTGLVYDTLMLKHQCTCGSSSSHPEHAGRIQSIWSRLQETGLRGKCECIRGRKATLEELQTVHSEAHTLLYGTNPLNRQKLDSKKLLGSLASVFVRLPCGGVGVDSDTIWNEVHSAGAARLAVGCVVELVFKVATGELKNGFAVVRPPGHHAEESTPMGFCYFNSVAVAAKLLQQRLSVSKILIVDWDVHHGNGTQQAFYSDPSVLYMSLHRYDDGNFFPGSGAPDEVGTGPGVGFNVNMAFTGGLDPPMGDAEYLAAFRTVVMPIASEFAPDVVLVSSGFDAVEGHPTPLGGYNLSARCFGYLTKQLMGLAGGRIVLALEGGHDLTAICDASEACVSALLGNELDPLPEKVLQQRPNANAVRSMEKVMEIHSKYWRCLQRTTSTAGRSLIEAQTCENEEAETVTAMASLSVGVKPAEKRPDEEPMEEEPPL

Structure (SMILES) | Exp. pIC50 (HDAC9) | average pIC50 value, Exp. (HDAC isoforms; average over HDAC isoforms, MTS) | Exp. pIC50 (HDAC4) | Exp. pIC50 (HDAC7) | Exp. pIC50 (HDAC5) | Experimental activity (pKi), Exp (HIV-RT K103N) | Experimental activity (pKi), Exp (HIV-RT Y188L) | Experimental activity (pKi), Exp (HIV-RT WT) | Experimental activity (pKi), Exp (HIV-RT V106A) | Experimental activity (pKi), Exp (HIV-RT Y181I) | Experimental activity (pKi), Exp (HIV-RT L100I) | Bioactivity range (ΔpIC50) DpIC50 (HDAC isoforms; range of pIC50 over the profiled HDAC isoforms) | Experimental pIC50 (HDLP) | IC50 (HDLP) [nM]
O=C(O)CCCc1ccccc1 [MCL-3] | 2.70 | 3.40 | 2.70 | 2.70 | 2.70 |  |  |  |  |  |  |  |  | 
Cc1c(N)nc(Nc2ccc(C#N)cc2)nc1[C@H](C)c1c(F)cccc1F [(R)-MC2082] |  |  |  |  |  | 8.52 | 8.10 | 6.81 | 9.52 | 6.12 | 8.10 |  |  | 
C/C=C/N(C)c1nc([C@H](C)c2c(F)cccc2F)c(C)c(=O)[nH]1 [(R)-MC1501] |  |  |  |  |  | 7.02 | 6.71 | 8.70 | 8.52 | 6.35 | 7.02 |  |  | 
CC(/C=C/C(=O)NO)=C\[C@H](C)C(=O)c1ccc(N(C)C)cc1 (stereo in doubt) [TSA, 7-(4-(Dimethylamino)phenyl)-N-hydroxy-4,6-dimethyl-7-oxo-2,4-heptadienamide] |  |  |  |  |  |  |  |  |  |  |  | 2.34 | 6.40 | 400
C/C=C/N(C)c1nc([C@@H](C)c2c(F)cccc2F)c(C)c(=O)[nH]1 [(S)-MC1501] |  |  |  |  |  | 6.01 | 4.40 | 6.93 | 6.45 | 4.40 | 4.40 |  |  | 
Cc1c(N)nc(Nc2ccc(C#N)cc2)nc1[C@@H](C)c1c(F)cccc1F [(S)-MC2082] |  |  |  |  |  | 7.19 | 4.40 | 4.52 | 6.62 | 6.29 | 6.74 |  |  | 
